Test results published in patent US7977069B2, “DNA encoding a CCK-8S G-protein coupled receptor, and vectors, transformants, cell kits, and methods employing such DNA” (Daiichi Sankyo Company, Limited, priority 2003, dated 2011).
Blank lines part the entries; values can stand above or below the compound they belong to.

Legend:
CHO-K1 cell line = experiment: Change in intracellular Ca2+ concentration in non-transfected CHO-K1 host cell line (negative control cells); assay type: cell-based, Chinese hamster; conditions: for increase in intracellular Ca2+ concentration: CHO-K1 cell line not transfected, peptide final concentration 1 nM (Example 5)
Procedure: (§1) A specific method for measuring a change in intracellular Ca^2+ concentration in the HA-ph01207#10-6 cell line produced by CCK-8S (SEQ ID NO: 14) and the results thereof are described below. HA-ph01207#10-6 cell line was seeded in 96-well plates (plates with a black wall surface and transparent bottom) at a cell count of 2×10^4/100 μL medium/well and cultured at 37° C. in the presence of 5% CO2. DMEM/F12 (Gibco) containing 10% fetal calf serum (Moregate BioTech) was used as medium. The next day, 50 μL of medium was extracted from each well, and 50 μL of loading buffer was added each well and allowed to react at room temperature for 1.5 h so as to incorporate fluorescent dye contained in the loading buffer into cells. The loading buffer was prepared by dissolving component A of the FLIPR Calcium 3 Assay Kit (Molecular Devices Corp.) with a solution in which 0.1 mL of 500 mM probenecid (Sigma) was added to 9.9 mL of component B. After the reaction, a change in the fluorescence intensity upon addition of CCK-BS (Peptide Institute, Osaka, Japan) was measured along with time for each well using FLEXstation (Molecular Devices Corp.). Measurement was also performed in a similar manner for CCK-8NS (Peptide Institute, Osaka, Japan) and CCK-4 (Peptide Institute). For CCK-8S (SEQ ID NO: 14), 0.52 mg thereof was dissolved with 4.5 mL of 1% NaHCO3 (Wako) to prepare a 0.1 mM concentration solution. For CCK-8NS, after dissolving 0.53 mg thereof with 0.50 mL of dimethylsulfoxide (DMSO, Sigma), 4.50 mL of redistilled water was added thereto to prepare a 0.1 mM concentration solution. For CCK-4, after dissolving 0.54 mg thereof with 0.46 mL of DMSO, 4.09 mL of redistilled water was added thereto to prepare a 0.2 mM concentration solution. CCK-8S (SEQ ID NO: 14), CCK-8NS and CCK-4 were each diluted with phosphate buffered saline (PBS) to make a 5 nM solution, and measurement was performed after adding 25 μL (final concentration 1 nM) of each. As a positive control that induces an increase in intracellular Ca^2+ concentration, A23187 (Calbiochem, Calif.) was used at a final concentration of 10 μM. As a negative control, CHO-K1 cell line that was used as a host in production of the HA-ph01207#10-6 cell line was used. Since the ph01207 expression vector was not transfected into the CHO-K1 cell line, the ph01207 gene product was not expressed therein.
(§2) Using stably expressing cell line of a splicing variant of ph01207 gene, a change in intracellular calcium concentration (Ca^2+) caused by CCK-8S was measured using the same method described in Example 5. As the stably expressing cell line of the splicing variant of ph01207 gene, the stably expressing cell line constructed in Example 7 was used. Further, using stable expressing cell line of hk01941 gene, the same investigation was conducted. As the stably expressing cell line of hk01941 gene, the stably expressing cell line constructed in Example 7 was used. As a control, a host cell which was not transfected with 7tmHR expression vector or hk01941 expression vector was used.
(§3) The cell line was seeded in 96-well plates (plates with a black wall surface and transparent bottom) at 3×10^4 cells/100 μL medium/well and cultured overnight at 37° C. in the presence of 5% CO2. The next day, 50 μL of the medium was extracted from each well, and 50 μL of loading buffer was added to each well to allow for a reaction at room temperature for 1 h so as to incorporate fluorescent dye contained in the loading buffer into cells. The loading buffer was prepared by the same method as described in Example 5. After the reaction, a change in the fluorescence intensity upon addition of CCK-8S was measured along with time for each well using FLEXstation (Molecular Devices Corp.). CCK-8S was used at a final concentration of 10 μM-1 μM. Further, A23187 was used at a final concentration of 20 μM as a positive control of the assay. […]

hk01941 gene product = experiment: Change in intracellular Ca2+ concentration in hk01941 stably expressing cell line; assay type: cell-based, human; conditions: A23187 20 μM
Procedure: as §2
as §3, with “Corp.).” for “Corp.). CCK-8S was used at a final concentration of 10 μM-1 μM. Further, A23187 was used at a final concentration of 20 μM as a positive control of the assay.”

variant 3 gene product = experiment: Change in intracellular Ca2+ concentration in variant 3 stably expressing cell line; assay type: cell-based, human; conditions: A23187 20 μM
Procedure: The function of variant 3 gene was analyzed using stably expressing cell line of variant 3 gene by investigating a change in intracellular calcium concentration (Ca^2+) caused by CCK-8S. The change in intracellular calcium concentration (Ca^2+) was measured using the same method described in Example 5. The stably expressing cell line of variant 3 gene was prepared using the variant 3 gene expression vector constructed in Example 7 by the method similar to the method described in Example 7.
The cell line was seeded in 96-well plates (plates with a black wall surface and transparent bottom) at 3×10^4 cells/100 μL medium/well and cultured overnight at 37° C. in the presence of 5% CO2. The next day, 50 μL of the medium was exited from each well, and 50 μL of loading buffer was added to each well to allow for a reaction at room temperature for 1 h so as to incorporate fluorescent dye contained in the loading buffer into cells. The loading buffer was prepared by the same method as described in Example 5. After the reaction, a change in the fluorescence intensity upon addition of CCK-8S was measured along with time for each well for 40 sec using FLEXstation (Molecular Devices Corp.). CCK-8S was used at a final concentration of 10 pM-1 μM. Further, A23187 was used at a final concentration of 20 μM as a positive control of the assay.

7tmHR gene product = molecular target: T1, 7tmHR gene product (Homo sapiens, UniProt O60241); experiment: Change in intracellular Ca2+ concentration in 7tmHR stably expressing cell line; assay type: cell-based; conditions: A23187 20 μM
T1 construct: three kinds of full length cDNA clones were obtained; expressed in transfected cells; host or cells: CHO-K1 (7tmHR/pcDNA3.1)
T1 sequence (O60241 13-1585): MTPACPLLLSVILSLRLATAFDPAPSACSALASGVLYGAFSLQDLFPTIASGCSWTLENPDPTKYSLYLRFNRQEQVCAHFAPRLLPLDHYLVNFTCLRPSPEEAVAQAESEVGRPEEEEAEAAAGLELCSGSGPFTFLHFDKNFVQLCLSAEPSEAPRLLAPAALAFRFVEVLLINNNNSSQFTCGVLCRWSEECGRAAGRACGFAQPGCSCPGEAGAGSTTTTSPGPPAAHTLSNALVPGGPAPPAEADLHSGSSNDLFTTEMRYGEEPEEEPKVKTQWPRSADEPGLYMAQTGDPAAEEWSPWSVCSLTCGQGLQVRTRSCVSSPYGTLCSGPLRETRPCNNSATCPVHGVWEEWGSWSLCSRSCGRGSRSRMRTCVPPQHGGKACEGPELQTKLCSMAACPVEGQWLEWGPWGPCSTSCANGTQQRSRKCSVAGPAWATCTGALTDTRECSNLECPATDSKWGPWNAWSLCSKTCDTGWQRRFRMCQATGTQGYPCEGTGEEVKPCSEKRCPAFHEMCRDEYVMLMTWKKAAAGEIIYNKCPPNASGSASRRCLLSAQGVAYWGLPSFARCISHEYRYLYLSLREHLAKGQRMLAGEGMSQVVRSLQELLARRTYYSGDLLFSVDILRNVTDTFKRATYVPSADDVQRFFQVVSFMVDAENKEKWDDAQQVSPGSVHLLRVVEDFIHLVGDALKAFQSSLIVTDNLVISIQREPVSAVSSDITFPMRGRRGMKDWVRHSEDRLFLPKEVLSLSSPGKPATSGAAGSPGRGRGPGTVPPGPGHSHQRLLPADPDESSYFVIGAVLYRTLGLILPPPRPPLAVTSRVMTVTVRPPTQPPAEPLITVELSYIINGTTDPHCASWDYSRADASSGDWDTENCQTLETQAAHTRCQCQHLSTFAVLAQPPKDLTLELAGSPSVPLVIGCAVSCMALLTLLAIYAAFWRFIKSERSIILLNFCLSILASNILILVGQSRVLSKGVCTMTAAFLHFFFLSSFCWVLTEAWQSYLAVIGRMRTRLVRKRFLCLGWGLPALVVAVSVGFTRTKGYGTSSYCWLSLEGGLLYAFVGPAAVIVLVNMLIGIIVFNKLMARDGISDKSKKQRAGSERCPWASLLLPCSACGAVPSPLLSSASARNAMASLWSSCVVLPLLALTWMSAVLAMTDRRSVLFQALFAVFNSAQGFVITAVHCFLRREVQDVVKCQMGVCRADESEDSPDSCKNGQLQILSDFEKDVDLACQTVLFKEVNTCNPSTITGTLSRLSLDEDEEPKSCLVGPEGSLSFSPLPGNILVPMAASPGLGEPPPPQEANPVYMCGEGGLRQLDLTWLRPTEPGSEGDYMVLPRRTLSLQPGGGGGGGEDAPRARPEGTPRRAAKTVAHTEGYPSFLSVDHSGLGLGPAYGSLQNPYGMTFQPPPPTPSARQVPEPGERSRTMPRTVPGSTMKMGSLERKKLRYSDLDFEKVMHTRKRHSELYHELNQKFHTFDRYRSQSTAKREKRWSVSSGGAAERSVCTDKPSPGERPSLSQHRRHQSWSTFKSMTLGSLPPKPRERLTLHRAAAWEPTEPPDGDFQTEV
Procedure: as §2
as §3, with “Corp.).” for “Corp.). CCK-8S was used at a final concentration of 10 μM-1 μM. Further, A23187 was used at a final concentration of 20 μM as a positive control of the assay.”

[1] = molecular target: T2, protein encoded by ph01207 (Homo sapiens, UniProt O60241, DEL308-362); experiment: Change in intracellular Ca2+ concentration in HA-ph01207#10-6 cell line (FLIPR Calcium 3, FLEXstation); assay type: cell-based; conditions: for rise in the intracellular Ca2+ concentration: peptide final concentration 1 nM
T2 construct: expressed in transfected cells; host or cells: CHO-K1 (HA-ph01207#10-6, FERM BP-10101)
T2 sequence (O60241 with tags, fused parts or gaps DEL308-362): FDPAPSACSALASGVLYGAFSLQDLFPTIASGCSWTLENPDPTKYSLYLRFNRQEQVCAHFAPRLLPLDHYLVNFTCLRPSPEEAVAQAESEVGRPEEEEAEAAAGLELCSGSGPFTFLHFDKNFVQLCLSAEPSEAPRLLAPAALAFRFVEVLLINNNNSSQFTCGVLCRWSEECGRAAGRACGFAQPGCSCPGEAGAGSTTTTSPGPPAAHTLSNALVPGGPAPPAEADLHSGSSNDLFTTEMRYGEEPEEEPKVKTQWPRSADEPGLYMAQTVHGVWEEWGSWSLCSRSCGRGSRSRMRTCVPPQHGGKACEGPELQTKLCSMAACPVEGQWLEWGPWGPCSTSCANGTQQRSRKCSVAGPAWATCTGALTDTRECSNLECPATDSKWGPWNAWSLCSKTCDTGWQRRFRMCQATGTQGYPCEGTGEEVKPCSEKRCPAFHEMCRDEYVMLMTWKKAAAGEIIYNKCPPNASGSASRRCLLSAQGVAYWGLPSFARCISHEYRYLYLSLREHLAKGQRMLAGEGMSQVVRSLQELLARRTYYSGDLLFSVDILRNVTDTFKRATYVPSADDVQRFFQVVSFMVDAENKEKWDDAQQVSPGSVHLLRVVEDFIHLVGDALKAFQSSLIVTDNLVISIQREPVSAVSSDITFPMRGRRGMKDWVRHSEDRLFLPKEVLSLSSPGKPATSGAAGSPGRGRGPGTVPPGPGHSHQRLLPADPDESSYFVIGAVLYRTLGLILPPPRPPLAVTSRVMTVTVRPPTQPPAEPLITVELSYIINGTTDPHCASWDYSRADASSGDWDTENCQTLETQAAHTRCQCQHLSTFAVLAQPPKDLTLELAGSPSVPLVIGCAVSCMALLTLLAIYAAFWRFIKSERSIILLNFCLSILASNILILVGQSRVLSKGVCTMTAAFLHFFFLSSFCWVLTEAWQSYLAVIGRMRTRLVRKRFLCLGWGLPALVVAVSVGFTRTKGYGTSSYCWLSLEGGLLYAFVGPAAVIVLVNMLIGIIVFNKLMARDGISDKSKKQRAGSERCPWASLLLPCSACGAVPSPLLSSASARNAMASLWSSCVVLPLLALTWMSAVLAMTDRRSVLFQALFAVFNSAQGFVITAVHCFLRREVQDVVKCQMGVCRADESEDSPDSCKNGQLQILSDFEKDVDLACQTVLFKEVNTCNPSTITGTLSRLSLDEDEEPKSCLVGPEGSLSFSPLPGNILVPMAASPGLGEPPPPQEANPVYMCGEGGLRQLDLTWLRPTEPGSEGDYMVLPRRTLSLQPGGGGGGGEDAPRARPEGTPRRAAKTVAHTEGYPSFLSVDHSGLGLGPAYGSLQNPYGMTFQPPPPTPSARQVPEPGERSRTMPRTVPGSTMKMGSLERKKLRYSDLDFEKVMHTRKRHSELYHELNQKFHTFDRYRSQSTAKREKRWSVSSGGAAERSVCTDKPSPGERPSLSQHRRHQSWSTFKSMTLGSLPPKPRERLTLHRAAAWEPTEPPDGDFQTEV
Procedure: Changes in intracellular calcium (Ca^2+) concentrations caused by CCK-8S(SEQ ID NO: 14), CCK-8NS and CCK-4 were determined using the […] expression cell lines prepared in Example 2. The cell lines prepared in Example 2 are eight lines in which the protein encoded by ph01207 expresses as a FLAG-tag fusion protein and four lines in which the protein encoded by ph01207 expresses as a HA-tag fusion protein. Among these, in this example HA-ph01207#10-6 cell line was used as a line obtained by cellular cloning of one cell line that stably expresses the protein encoded by ph01207 as a HA-tag fusion protein. Although CCK-8NS is a CCK octapeptide consisting of the same amino acid sequence as CCK-8S (SEQ ID NO: 14), the seventh tyrosine residue from the C-terminal thereof is not sulfated. CCK-4 is a tetrapeptide consisting of the amino acid residues from the C-terminus to the fourth amino acid residue of CCK-8S (SEQ ID NO: 14).
as §1, with “CCK-8S (SEQ ID NO: 14), CCK-8NS and CCK-4 were each diluted with phosphate buffered saline (PBS) to make a 5 nM solution, and measurement was performed after adding 25 μL (final concentration 1 nM) of each. As a positive control that induces an increase in intracellular Ca^2+ concentration, A23187 (Calbiochem, Calif.) was used at a final concentration of 10 μM. As a negative control, CHO-K1 cell line that was used as a host in production of the HA-ph01207#10-6 cell line was used. Since the ph01207 expression vector was not transfected into the CHO-K1 cell line, the ph01207 gene product was not expressed therein.” left out

[2] = CCK-8S administered to diabetes patients (Bo, A. et al., 2000); cited from earlier work

Compound: CNc1ccc2oc(C[C@H]3O[C@@]4(CC[C@H]3C)O[C@H]([C@H](C)C(=O)c3ccc[nH]3)[C@H](C)C[C@H]4C)nc2c1C(=O)O [A23187]
response (intracellular Ca2+) to positive control (CHO-K1 cell line; CHO-K1 host cell, A23187 20 μM (Examples 8 and 9)): observed similarly
response (intracellular Ca2+) to positive control (hk01941 gene product): observed similarly
response (intracellular Ca2+) to positive control (variant 3 gene product): observed similarly
response (intracellular Ca2+) to positive control (7tmHR gene product): observed similarly

Compound: CCK-4: tetrapeptide consisting of the amino acid residues from the C-terminus to the fourth residue of CCK-8S
increase in intracellular Ca2+ concentration (CHO-K1 cell line): no increase
rise in the intracellular Ca2+ concentration [1]: not observed

rise in the intracellular Ca2+ concentration [1]: not observed
Compound: CCK-8 Nonsulfated form [CCK-8NS]
increase in intracellular Ca2+ concentration (CHO-K1 cell line): no increase

level of increase in the intracellular Ca2+ concentration compared with that produced by A23187 ([1]; 1 nM CCK-8S vs 10 μM A23187): roughly equal
rise in the intracellular Ca2+ concentration [1]: rose
Compound: cholecystokinin octapeptide sulfated form [CCK-8S]
increase in intracellular Ca2+ concentration (CHO-K1 cell line): no increase
change in intracellular calcium concentration (CHO-K1 cell line; host cell not transfected with variant 3 expression vector, CCK-8S (Example 9)): not observed
change in intracellular calcium concentration (CHO-K1 cell line; host cell transfected with neither 7tmHR nor hk01941 expression vector, CCK-8S (Example 8)): not observed
increase in insulin amounts [2]: promoted
increase in postcibal glucose amount [2]: suppressed
